The source of these data is patent US9403800B2, “Compounds for inhibition of cancer cell proliferation” (ChemRegen, Inc., priority 2012, dated 2016).

For data set [1], the system named is Wnt transcriptional activity. Put plainly: cell-based Wnt-luciferase reporter assay (SuperTOPFlash). The conditions noted are these: for Relative potency for Wnt inhibition: relative to IWR-1, transfected HEK293A cells treated 12 hours, normalized to Renilla; for inhibition of Wnt transcriptional activity (in words): Wnt-luciferase reporter. From the text: “Hit” 1 (FIG. 1) was identified as a Wnt inhibitor in a high-throughput screen of a library of 74,000 compounds using a cell-based Wnt-luciferase reporter assay as a readout of Wnt transcriptional activity. […] Wnt transcriptional activity was monitored in HEK-293T cells using a luciferase-based Wnt reporter (SuperTOPFlash) stimulated by Wnt3a conditioned media.
Medicinal chemical refinement of “hit” 1 was undertaken to improve its potency, maintain non-toxicity, increase water solubility and improve bioavailability. The SAR refinement of functional activity of “hit” 1 on the inhibition of the Wnt pathway was determined using a cell-based Wnt-luciferase reporter assay (described above). with Renilla Luciferase was used as a normalization for transfection efficiency. 6-8 hours after transfection, transfected HEK293A cells were treated with 1 and each analog for 12 hours. Both firefly and renilla luciferase activities were measured using a plate reader. A library of compounds was tested to obtain an SAR for 1. Compound 1 and its analogs are synthesized by a two step synthesis, Scheme 1.
Signaling was tested using a standard luciferase response system for canonical Wnt/β-catenin/TCF signaling. Briefly, we used a cell line that had been transfected with a luciferase reporter gene under the control of the response element of a transcription factor that is activated by association with β-catenin and is the target of canonical Wnt signaling.
A general note: A reporter such as luciferase makes a cellular process visible.

Data set [2] can be described thus: chemical stability by HPLC. Particulars: determined by HPLC. Format: physicochemical. The source says:
As observed from the data presented in Table 1, both free bases and salts gave significant Wnt inhibition potency. On the basis of the lipophilic character of many of the analogs, it is likely interaction site on the molecular target has a lipophilic character although polar interactions are apparent. To increase solubility, were possible, hydrochloride salts of the sulfonamides were synthesized. To afford appropriate bioavailability, sulfonamides were synthesized with chemical and metabolic stability in mind.

Data set [3] has as its system canonical Wnt target genes, Cyclin D1 (CCND1), Axin2 (AXIN2), and c-Myc (c-MYC). As to the kind of experiment: mRNA levels of canonical Wnt target genes in HEK293T and SW480 cells. It is filed as cell-based. The conditions noted are these: HEK293T and SW480 colorectal cells.
Data set [4] relates to SW480 colorectal cancer model cell line. Put plainly: SW480 cell proliferation and cell cycle (InCell 1000). Format: cell-based, human. From the text:
Previous studies have shown that the Wnt signaling pathway drives cellular proliferation of a number of cancers through up-regulation of genes for several proteins crucial for cell division including Cyclin D1, c-Myc, etc. and treatment of cancer cells with 1 or analogs decreases cellular proliferation. Accordingly, we examined the effect of 1 and analogs on cell proliferation of human cancer cell lines. […] The results were confirmed by studying the effects of 1 on SW480 human colon cell cycle determined by cell images captured by InCell 1000.

The next data set in a line: pharmacokinetics in rats. The conditions noted are these: rat, in vivo.

On to `O=C1CCCN1c1ccc(S(=O)(=O)Nc2ccccc2OC(F)(F)F)cc1` [Compound 19, 4-(2-oxopyrrolidin-1-yl)-N-(2-(trifluoromethoxy)phenyl)benzenesulfonamide], for which the “Relative potency for Wnt inhibition” value in data set [1] is given as “+ (<20% potency compared to compound IWR-1)”.
Same read-out and setting: in the case of `CN1CCN(S(=O)(=O)c2ccc(N3CCC(O)C3)cc2)c2ccccc21` (stereo not shown) [Compound 34, 1-(4-(4-methyl-3,4-dihydroquinoxalin-1(2H)-ylsulfonyl)phenyl)pyrrolidin-3-ol] it was “+++ (between 40 to 60% potency compared to IWR-1)”; in that of `COc1ccccc1NS(=O)(=O)c1ccc(N2CCCC2=O)cc1` [Compound 18, N-(2-methoxyphenyl)-4-(2-oxopyrrolidin-1-yl)benzenesulfonamide], “+ (<20% potency compared to compound IWR-1)”; in that of `CC(=O)N(C)c1ccc(S(=O)(=O)N2CCCc3ccccc32)cc1` [Compound 26, N-(4-(3,4-dihydroquinolin-1(2H)-ylsulfonyl)phenyl)-N-methylacetamide], “+ (<20% potency compared to compound IWR-1)”.
Turning to `O=C1CCCN1c1ccc(S(=O)(=O)N2CCCC3CCCCC32)cc1` (stereo not shown) [Compound 3, 1-(4-(octahydroquinolin-1(2H)-ylsulfonyl)phenyl)pyrrolidin-2-one], in data set [1], the “inhibition of Wnt transcriptional activity (in words)” value is on record as “potent inhibition of Wnt”.
Take `CCCCN(c1ccccc1)S(=O)(=O)c1ccc(N2CCCC2=O)cc1` [Compound 24, N-butyl-4-(2-oxopyrrolidin-1-yl)-N-phenylbenzenesulfonamide]: in data set [1], the “Relative potency for Wnt inhibition” value is “+ (<20% potency compared to compound IWR-1)”.
On the same count and under the same terms, for `CN1CCN(S(=O)(=O)c2ccc(N3CCC=N3)cc2)c2ccccc21` [Compound 32, 1-(4-(4,5-dihydro-1H-pyrazol-1-yl)phenylsulfonyl)-4-methyl-1,2,3,4-tetrahydroquinoxaline] the value was “++++ (between 60 to 80% potency compared to IWR-1)”; for `CN1CCN(S(=O)(=O)c2ccc(N3CCC(O)C3=O)cc2)c2ccccc21` (stereo not shown) [Compound 28, 3-hydroxy-1-(4-(4-methyl-3,4-dihydroquinoxalin-1(2H)-ylsulfonyl)phenyl)-pyrrolidin-2-one], “+++ (between 40 to 60% potency compared to IWR-1)”.
Same read-out and setting: for `O=C1CCCN1c1ccc(S(=O)(=O)Nc2cccc3ccccc23)cc1` [Compound 20, N-(naphthalen-1-yl)-4-(2-oxopyrrolidin-1-yl)benzenesulfonamide] the value was “+ (<20% potency compared to compound IWR-1)”; for `O=C1CCCN1c1ccc(S(=O)(=O)N2CCc3ccccc3C2)cc1` [Compound 12, 1-(4-(3,4-dihydroisoquinolin-2(1H)-ylsulfonyl)phenyl)pyrrolidin-2-one], “++++ (between 60 to 80% potency compared to IWR-1)”; for `CCCN(c1ccccc1)S(=O)(=O)c1ccc(N2CCCC2=O)cc1` [Compound 23, 4-(2-oxopyrrolidin-1-yl)-N-phenyl-N-propylbenzenesulfonamide], “+ (<20% potency compared to compound IWR-1)”.
The same measure, in the same setting: for `O=C1CCCN1c1ccc(S(=O)(=O)N2CCCc3cc(C(F)(F)F)ccc32)cc1` [Compound 8, 1-(4-(6-(trifluoromethyl)-3,4-dihydroquinolin-1(2H)-ylsulfonyl)phenyl)-pyrrolidin-2-one] the value was “+++ (between 40 to 60% potency compared to IWR-1)”.
With `CCC1CCCCN1S(=O)(=O)c1ccc(N2CCCC2=O)cc1` (stereo not shown) [Compound 22, 1-(4-(2-ethylpiperidin-1-ylsulfonyl)phenyl)pyrrolidin-2-one], the “Relative potency for Wnt inhibition” value in data set [1] was “+ (<20% potency compared to compound IWR-1)”.
Turning to `Cc1ccc2c(c1)CN(S(=O)(=O)c1ccc(N3CCCC3=O)cc1)CC2` [Compound 14, 1-(4-(7-methyl-3,4-dihydroisoquinolin-2(1H)-ylsulfonyl)phenyl)pyrrolidin-2-one], in data set [1], the “Relative potency for Wnt inhibition” value is listed as “+++ (between 40 to 60% potency compared to IWR-1)”.
Still for that read-out and setting: in the case of `Cc1ccc2c(c1)N(S(=O)(=O)c1ccc(N3CCCC3=O)cc1)CCC2` [Compound 11, 1-(4-(7-methyl-3,4-dihydroquinolin-1(2H)-ylsulfonyl)phenyl)pyrrolidin-2-one] it was “++++ (between 60 to 80% potency compared to IWR-1)”.
As to `O=C1CCCN1c1ccc(S(=O)(=O)N2CCCc3cc(F)ccc32)cc1` [Compound 6, 1-(4-(6-fluoro-3,4-dihydroquinolin-1(2H)-ylsulfonyl)phenyl)pyrrolidin-2-one], the “Relative potency for Wnt inhibition” value in data set [1] is given as “+++ (between 40 to 60% potency compared to IWR-1)”. Besides, the chemical half life entry in data set [2] is “No change”.
With `O=C1CCCN1c1ccc(S(=O)(=O)N2CCCc3cc(Cl)ccc32)cc1` [Compound 5, 1-(4-(6-chloro-3,4-dihydroquinolin-1(2H)-ylsulfonyl)phenyl)pyrrolidin-2-one], the “Relative potency for Wnt inhibition” value in data set [1] is listed as “++++ (between 60 to 80% potency compared to IWR-1)”.
Turning to `O=C(Nc1cccc2cccnc12)c1ccc(N2C(=O)[C@@H]3[C@H](C2=O)[C@@H]2C=C[C@H]3C2)cc1` [IWR-1, reference compound], the “mRNA levels of canonical Wnt target genes CCND1, AXIN2, c-MYC” value in data set [3] is reported as “decreased mRNA expression”. In addition, the cell cycle distribution result in data set [4] (SW480 cells, InCell 1000 images) is “did not alter either the rate of SW480 cell proliferation or cell cycle”. Besides, the “cancer cell proliferation (in words)” value in data set [4] (SW480 colon cancer cell line) is “did not alter either the rate of SW480 cell proliferation or cell cycle”.
As to `COC1CCN(c2ccc(S(=O)(=O)N3CCN(C)c4ccccc43)cc2)C1=O` (stereo not shown) [Compound 27, 3-methoxy-1-(4-(4-methyl-3,4-dihydroquinoxalin-1(2H)-ylsulfonyl)phenyl)-pyrrolidin-2-one], the “Relative potency for Wnt inhibition” value in data set [1] is on record as “+ (<20% potency compared to compound IWR-1)”.
On the same count and under the same terms, in the case of `CC(C)(C)c1ccc2c(c1)CCCN2S(=O)(=O)c1ccc(N2CCCC2=O)cc1` [Compound 9, 1-(4-(6-tert-butyl-3,4-dihydroquinolin-1(2H)-ylsulfonyl)phenyl)pyrrolidin-2-one] it was “+ (<20% potency compared to compound IWR-1)”.
Still for that read-out and setting: for `O=C1CCCN1c1ccc(S(=O)(=O)N2CCCCC2)cc1` [Compound 21, 1-(4-(piperidin-1-ylsulfonyl)phenyl)pyrrolidin-2-one] the value was “+ (<20% potency compared to compound IWR-1)”; for `CN1CCN(S(=O)(=O)c2ccc(-n3cccn3)cc2)c2ccccc21` [Compound 33, 1-(4-(1H-pyrazol-1-yl)phenylsulfonyl)-4-methyl-1,2,3,4-tetrahydroquinoxaline], “+ (<20% potency compared to compound IWR-1)”.
With `CC(=O)c1ccc(NN=C(C(N)=O)C2=NC(C)(C)Cc3ccccc32)cc1` [IQ-1], the “mRNA levels of canonical Wnt target genes CCND1, AXIN2, c-MYC” value in data set [3] is given as “enhanced mRNA expression”.
`Cc1ccc2c(c1)CCN(S(=O)(=O)c1ccc(N3CCCC3=O)cc1)C2` [Compound 13, 1-(4-(6-methyl-3,4-dihydroisoquinolin-2(1H)-ylsulfonyl)phenyl)pyrrolidin-2-one]: the “Relative potency for Wnt inhibition” value in data set [1] was “+ (<20% potency compared to compound IWR-1)”.
By half-life is commonly meant the time in which the quantity being followed falls by half. High values mean slow decline, low ones rapid decline. For the compound `COc1ccc2c(c1)CCCN2S(=O)(=O)c1ccc(N2CCCC2=O)cc1` [Compound 7, 1-(4-(6-methoxy-3,4-dihydroquinolin-1(2H)-ylsulfonyl)phenyl)pyrrolidin-2-one], in data set [1], the “Relative potency for Wnt inhibition” value was “++++ (between 60 to 80% potency compared to IWR-1)”. In data set [2], this compound gave a half-life of 37 h.
For orientation: bioavailability means the share of a dose that reaches the circulation, judged against a reference dose that is usually intravenous. The low end stands for little systemic uptake, the high end for much systemic uptake. For the compound `CN1CCN(S(=O)(=O)c2ccc(N3CCCC3)cc2)c2ccccc21` [Compound 31, 1-methyl-4-(4-(pyrrolidin-1-yl)phenylsulfonyl)-1,2,3,4-tetrahydroquinoxaline], in data set [1], the “Relative potency for Wnt inhibition” value is given as “++++ (between 60 to 80% potency compared to IWR-1)”. The same compound returned a bioavailability in “pharmacokinetics in rats” of 11%.
In the case of `O=C1CCCCN1c1ccc(S(=O)(=O)N2CCCc3ccccc32)cc1` [Compound 25, 1-(4-(3,4-dihydroquinolin-1(2H)-ylsulfonyl)phenyl)piperidin-2-one], in data set [1], the “inhibition of Wnt transcriptional activity (in words)” value is given as “did not inhibit Wnt transcriptional activity” and the “Relative potency for Wnt inhibition” value is “+ (<20% potency compared to compound IWR-1)”.
`O=C1CCCN1c1ccc(S(=O)(=O)Nc2ccccc2)cc1` [Compound 17, 4-(2-oxopyrrolidin-1-yl)-N-phenylbenzenesulfonamide]: the “Relative potency for Wnt inhibition” value in data set [1] is reported as “+ (<20% potency compared to compound IWR-1)”.
